Legend:
Barley = experiment: Whole plant screen for plant growth regulator activity, barley (BR); type: in vivo, Barley (Atem); settings: BR, 4000 ppm (4 kg/ha), visual score after 2-6 weeks; for T = Tillering or side shooting: * = decrease in tillering
Procedure, shortened: (§1)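 Plants were sprayed with compound at 4000 ppm (4 kg/ha in a 1000 l/ha field volume) by tracksprayer and kept in a glasshouse under a 16 h photoperiod: maize and rice at 25° C. day/22° C. night, wheat and barley at 16° C. day/13° C. night. Morphology was scored visually after 2-6 weeks against formulation blanks.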

Wheat = experiment: Whole plant screen for plant growth regulator activity, wheat (WW); type: in vivo, Wheat (Timmo); settings: WW, 4000 ppm (4 kg/ha), visual score after 2-6 weeks; for T = Tillering or side shooting: * = decrease in tillering
Procedure, shortened: as §1

Rice [1] = experiment: Whole plant screen for plant growth regulator activity, rice (RC); type: in vivo, Rice (Ishikari); settings: 4000 ppm (4 kg/ha), visual score after 2-6 weeks
Procedure, shortened: as §1

Apple = experiment: Whole plant screen for plant growth regulator activity, apple (AP); type: in vivo, Apple (Red Delicious); settings: 4000 ppm (4 kg/ha), visual score after 2-6 weeks
Procedure: Compounds 1 to 3 in Table 1 were tested for plant growth regulator activity against five species for various growth effects relevant to plant growth regulation.
The plant species used in this screen are presented in Table II with the leaf stage at which they were sprayed. Each chemical was applied at 4000 ppm (4 kg/ha in a 1000 l/ha field volume) using a tracksprayer and a SS8004E (Teejet) nozzle.
After spray the plants were grown in a glasshouse with 25° C. day/22° C. night temperatures and supplementary lighting was supplied when necessary (from mercury vapour lamps), to provide a 16 hour photoperiod. The exception to this were the temperate cereals, wheat and barley which were grown in 16° C. day/13° C. night temperatures.
After 2-6 weeks in the glasshouse, depending on the time of year, the plants were visually assessed for morphological characteristics. Formulation blanks were used as controls to assess the plants.
Additional compounds in Table I were tested for plant growth regulator activity using the method of Example 60 except that Tomato was included in the test as an additional species. Tomato, Ailsa Craig, was grown in a single 3 inch pot in peat and treated at the 2 to 21/2 leaves growth stage. The results were presented in Table IV in which Tomato is indicated by the code TO and the Key is otherwise as for Table III.

Tomato = experiment: Whole plant screen for plant growth regulator activity, tomato (TO); type: in vivo, Tomato (Ailsa Craig); settings: 4000 ppm (4 kg/ha), visual score after 2-6 weeks
Procedure, shortened: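 Tomato (Ailsa Craig), one plant per 3-inch peat pot, sprayed at 2–2½ leaves with 4000 ppm (4 kg/ha in 1000 l/ha) by track sprayer. Glasshouse 25 °C day/22 °C night, 16 h photoperiod; morphology visually scored after 2–6 weeks against formulation blanks.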

Rice [2] = experiment: Intermediate Retardant Test, rice; type: in vivo, Rice (Ishikari); settings: Oryza sativa, 672 h, overall spray, approximately 28 days, Table VI, read-out: Percentage Reduction in Height of Rice (Compared to formulation blank)
Text: (§2) Three species are involved in this test RICE, SPRING-BARLEY and APPLES. The variety and growth stages at spray are outlined in Table V. Compounds were applied at 500 ppm and 2000 ppm respectively (0.5 kg and 2 kg/ha^-1 at a field volume of 1000 l/ha^-1) as an overall spray except in the case of certain tests on APPLES. This gives a foliar and root component in the test, i.e., this test will detect the activity of both root and foliar acting compounds. The intermediate retardant test on APPLES of which the results are given in Table IX was different, in that a foliar (only) spray at 2000 ppm was compared with a root drench, also at 2000 ppm. The rice was grown in 4" `paddy` pots, i.e., the roots and bottom of the stems are immersed in water under conditions corresponding to those in paddy fields. Spring barley and apples were grown in 4" pots. The plants were assessed for height to top-most ligule at approximately 28 days after treatment for spring barley and rice and for height to apex at approximately 28 days after the treatment for apples. In each case the result for the 500 ppm and 2000 ppm test for each compound is compared to the height of the formulation blank in that test, presented as a percentage reduction in height compared to the formulation blank.
(§3) The prior art compound was compared with compounds of the present invention in side-by-side comparisons using the Intermediate Retardant Test described in Example 62, and the results are given in Tables X to XII where `A` is the prior art compound, 2-methyl-1-isopropyl-1-(pyrimidin-5-yl)-propan-1-ol).

Spring Barley = experiment: Intermediate Retardant Test, spring barley; type: in vivo, Spring Barley (Atem/kym); settings: Hordeum vulgare, 672 h, overall spray, approximately 28 days, Table VII, read-out: Percentage Reduction in Height of Spring Barley (Compared to formulation blank)
Text: as §2, §3

Apples = experiment: Intermediate Retardant Test, apples, foliar spray compared with root drench; type: in vivo, Apples (Red Delicious); settings: 672 h, approximately 28 days, Table IX, read-out: Percentage Reduction in Height of Apples (Compared to formulation blank); for percent reduction in plant height at 2000 ppm: 2000 ppm (Foliar); for percent reduction in plant height at 2000 µg/mL: soil, 2000 pmm (Root), root drench
Text: as §2, §3

Compound | G = Greening effect (Barley) | I = Interligular or internodal length reduction (Barley) | R = Retardation (Barley) | T = Tillering or side shooting (Barley) | I = Interligular or internodal length reduction (Wheat) | R = Retardation (Wheat) | T = Tillering or side shooting (Wheat) | G = Greening effect (Rice [1]) | I = Interligular or internodal length reduction (Rice [1]) | R = Retardation (Rice [1]) | G = Greening effect (Apple) | I = Interligular or internodal length reduction (Apple) | R = Retardation (Apple) | I = Interligular or internodal length reduction (Tomato) | R = Retardation (Tomato) | Percent reduction in rice height vs formulation blank at 500 ppm (Rice [2]) [%] | Percent reduction in rice height vs formulation blank at 2000 ppm (Rice [2]) [%] | percent reduction in plant height at 500 ppm (Spring Barley) [%] | percent reduction in plant height at 2000 ppm (Spring Barley) [%] | percent reduction in plant height at 2000 ppm (Apples) [%] | other results
CC(C)C#CC(O)(c1cncnc1)C(C)C (stereo not drawn) [Compound 9, 2-Methyl-1-(3-methylbut-1-yne)-1-(pyrimidin-5-yl)propan-1-ol] | 2 (31-60%) | 3 (61-100%) | 2 (31-60%) | 2 (31-60%) | 3 (61-100%) | 2 (31-60%) | 2 (31-60%) | 1 (10-30%) | 1 (10-30%) | 1 (10-30%) | 1 (10-30%) | 3 (61-100%) | 3 (61-100%) | 1 (10-30%) | 1 (10-30%) | 11 | 18 | 20 | 49 | 0 | G = Greening effect (Wheat): 2 (31-60%); A = Apical damage (Rice [1]): 1 (10-30%); G = Greening effect (Tomato): 1 (10-30%); percent reduction in plant height at 2000 µg/mL (Apples): 63%
CC(C)C#CC(O)(c1cncnc1)C(C)(C)C (stereo not drawn) [Compound 18, 2,2-Dimethyl-1-(3-methylbut-1-yne)-1-(pyrimdin-5-yl)-propan-1-ol] | 2 (31-60%) | 3 (61-100%) | 2 (31-60%) | 3 (61-100%) | 3 (61-100%) | 2 (31-60%) | 2 (31-60%) | 1 (10-30%) | 3 (61-100%) | 3 (61-100%) | 2 (31-60%) | 3 (61-100%) | 3 (61-100%) | 3 (61-100%) | 3 (61-100%) | 13 | 15 | 17 | 55 | 0 | percent reduction in plant height at 2000 µg/mL (Apples): 69%
